Measured values as given in ChEMBL document CHEMBL5723584 (2023).
Active and inactive are the calls of the source. No cut-off for these calls is given here.

Assays:
[1] = molecular target: Tyrosine-protein kinase Lck (Homo sapiens) (UniProt P06239); experiment: activity of Lck(h) activated at 1.0 µM in the Eurofins Kinase panel; settings: Compound concentration 1.0 uM
[2] = molecular target: Mitogen-activated protein kinase 14 (Homo sapiens) (UniProt Q16539); experiment: activity of SAPK2a(h) at 1.0 µM in the Eurofins Kinase panel; settings: Compound concentration 1.0 uM
[3] = molecular target: CDK18/Cyclin Y (Homo sapiens) (UniProt Q07002+Q8ND76); experiment: activity of CDK18/cyclinY(h) at 1.0 µM in the Eurofins Kinase panel; format: protein-complex assay; settings: Compound concentration 1.0 uM
[4] = molecular target: Serine/threonine-protein kinase LATS1 (Homo sapiens) (UniProt O95835); experiment: activity of LATS1(h) at 1.0 µM in the Eurofins Kinase panel; settings: Compound concentration 1.0 uM
[5] = molecular target: Protein kinase C zeta type (Homo sapiens) (UniProt Q05513); experiment: activity of PKCzeta(h) at 1.0 µM in the Eurofins Kinase panel; settings: Compound concentration 1.0 uM
[6] = molecular target: Epithelial discoidin domain-containing receptor 1 (Homo sapiens) (UniProt Q08345); experiment: activity of DDR1(h) at 1.0 µM in the Eurofins Kinase panel; settings: Compound concentration 1.0 uM
[7] = molecular target: Protein kinase C iota type (Homo sapiens) (UniProt P41743); experiment: activity of PKCiota(h) at 1.0 µM in the Eurofins Kinase panel; settings: Compound concentration 1.0 uM
[8] = molecular target: 3-phosphoinositide-dependent protein kinase 1 (Homo sapiens) (UniProt O15530); experiment: activity of PDK1(h) at 1.0 µM in the Eurofins Kinase panel; settings: Compound concentration 1.0 uM
[9] = molecular target: Serine/threonine-protein kinase 32C (Homo sapiens) (UniProt Q86UX6); experiment: activity of STK32C(h) at 1.0 µM in the Eurofins Kinase panel; settings: Compound concentration 1.0 uM
[10] = molecular target: Eukaryotic translation initiation factor 2-alpha kinase 3 (Homo sapiens) (UniProt Q9NZJ5); experiment: activity of PEK(h) at 1.0 µM in the Eurofins Kinase panel; settings: Compound concentration 1.0 uM
[11] = molecular target: Serine/threonine-protein kinase 38-like (Homo sapiens) (UniProt Q9Y2H1); experiment: activity of NDR2(h) at 1.0 µM in the Eurofins Kinase panel; settings: Compound concentration 1.0 uM
[12] = molecular target: Protein kinase C beta type (Homo sapiens) (UniProt P05771); experiment: activity of PKCbetaI(h) at 1.0 µM in the Eurofins Kinase panel; settings: Compound concentration 1.0 uM
[13] = molecular target: Casein kinase II subunit alpha (Homo sapiens) (UniProt P68400); experiment: activity of CK2alpha1(h) at 1.0 µM in the Eurofins Kinase panel; settings: Compound concentration 1.0 uM
[14] = molecular target: Serine/threonine-protein kinase pim-3 (Homo sapiens) (UniProt Q86V86); experiment: activity of Pim-3(h) at 1.0 µM in the Eurofins Kinase panel; settings: Compound concentration 1.0 uM
[15] = molecular target: Serine/threonine-protein kinase 3 (Homo sapiens) (UniProt Q13188); experiment: activity of MST2(h) at 1.0 µM in the Eurofins Kinase panel; settings: Compound concentration 1.0 uM
[16] = molecular target: Citron Rho-interacting kinase (Homo sapiens, UniProt O14578); experiment: NanoLuc NanoBRET (CIT); settings: read-out: Kd
[17] = molecular target: Inhibitor of nuclear factor kappa-B kinase subunit epsilon (Homo sapiens) (UniProt Q14164); experiment: activity of IKKepsilon(h) at 1.0 µM in the Eurofins Kinase panel; settings: Compound concentration 1.0 uM
[18] = molecular target: Serine/threonine-protein kinase ULK1 (Homo sapiens) (UniProt O75385); experiment: activity of ULK1(h) at 1.0 µM in the Eurofins Kinase panel; settings: Compound concentration 1.0 uM
[19] = molecular target: Mast/stem cell growth factor receptor Kit (Homo sapiens) (UniProt P10721); experiment: activity of cKit(h) at 1.0 µM in the Eurofins Kinase panel; settings: Compound concentration 1.0 uM
[20] = molecular target: Mitogen-activated protein kinase 8 (Homo sapiens) (UniProt P45983); experiment: activity of JNK1alpha1(h) at 1.0 µM in the Eurofins Kinase panel; settings: Compound concentration 1.0 uM
[21] = molecular target: Ribosomal protein S6 kinase alpha-4 (Homo sapiens) (UniProt O75676); experiment: activity of MSK2(h) at 1.0 µM in the Eurofins Kinase panel; settings: Compound concentration 1.0 uM
[22] = molecular target: Myosin light chain kinase (Homo sapiens) (UniProt Q32MK0); experiment: activity of MLCK(h) at 1.0 µM in the Eurofins Kinase panel; settings: Compound concentration 1.0 uM
[23] = molecular target: Phosphatidylinositol 4-phosphate 5-kinase type-1 gamma (Homo sapiens) (UniProt O60331); experiment: activity of PIP5K1gamma(h) at 1.0 µM in the Eurofins Kinase panel; settings: Compound concentration 1.0 uM
[24] = molecular target: Eukaryotic elongation factor 2 kinase (Homo sapiens) (UniProt O00418); experiment: activity of eEF-2K(h) at 1.0 µM in the Eurofins Kinase panel; settings: Compound concentration 1.0 uM
[25] = molecular target: Serine/threonine-protein kinase SIK1 (Homo sapiens) (UniProt P57059); experiment: activity of SIK(h) at 1.0 µM in the Eurofins Kinase panel; settings: Compound concentration 1.0 uM
[26] = molecular target: Insulin-like growth factor 1 receptor (Homo sapiens) (UniProt P08069); experiment: activity of IGF-1R(h) at 1.0 µM in the Eurofins Kinase panel; settings: Compound concentration 1.0 uM
[27] = molecular target: Fibroblast growth factor receptor 1 (Homo sapiens) (UniProt P11362); experiment: activity of FGFR1(h) at 1.0 µM in the Eurofins Kinase panel; settings: Compound concentration 1.0 uM
[28] = molecular target: Tyrosine-protein kinase Fes/Fps (Homo sapiens) (UniProt P07332); experiment: activity of Fes(h) at 1.0 µM in the Eurofins Kinase panel; settings: Compound concentration 1.0 uM
[29] = molecular target: Serine/threonine-protein kinase 24 (Homo sapiens) (UniProt Q9Y6E0); experiment: activity of MST3(h) at 1.0 µM in the Eurofins Kinase panel; settings: Compound concentration 1.0 uM
[30] = molecular target: Serine/threonine-protein kinase 25 (Homo sapiens) (UniProt O00506); experiment: activity of STK25(h) at 1.0 µM in the Eurofins Kinase panel; settings: Compound concentration 1.0 uM
[31] = molecular target: Receptor-interacting serine/threonine-protein kinase 2 (Homo sapiens) (UniProt O43353); experiment: activity of RIPK2(h) at 1.0 µM in the Eurofins Kinase panel; settings: Compound concentration 1.0 uM
[32] = molecular target: Serine/threonine-protein kinase Sgk3 (Homo sapiens) (UniProt Q96BR1); experiment: activity of SGK3(h) at 1.0 µM in the Eurofins Kinase panel; settings: Compound concentration 1.0 uM
[33] = molecular target: Serine/threonine-protein kinase PAK 5 (Homo sapiens) (UniProt Q9P286); experiment: activity of PAK5(h) at 1.0 µM in the Eurofins Kinase panel; settings: Compound concentration 1.0 uM
[34] = molecular target: Serine/threonine-protein kinase Nek4 (Homo sapiens) (UniProt P51957); experiment: activity of NEK4(h) at 1.0 µM in the Eurofins Kinase panel; settings: Compound concentration 1.0 uM
[35] = molecular target: Testis-specific serine/threonine-protein kinase 1 (Homo sapiens) (UniProt Q9BXA7); experiment: activity of TSSK1(h) at 1.0 µM in the Eurofins Kinase panel; settings: Compound concentration 1.0 uM
[36] = molecular target: PI3-kinase p110-alpha/p85-alpha (Homo sapiens) (UniProt P27986+P42336); experiment: activity of PI3 Kinase (p110alpha/p85alpha)(h) at 1.0 µM in the Eurofins Kinase panel; format: protein-complex assay; settings: Compound concentration 1.0 uM
[37] = molecular target: cGMP-dependent protein kinase 1 (Homo sapiens) (UniProt Q13976); experiment: activity of PKG1beta(h) at 1.0 µM in the Eurofins Kinase panel; settings: Compound concentration 1.0 uM
[38] = molecular target: Ephrin type-B receptor 3 (Homo sapiens) (UniProt P54753); experiment: activity of EphB3(h) at 1.0 µM in the Eurofins Kinase panel; settings: Compound concentration 1.0 uM
[39] = molecular target: Ephrin type-A receptor 2 (Homo sapiens) (UniProt P29317); experiment: activity of EphA2(h) at 1.0 µM in the Eurofins Kinase panel; settings: Compound concentration 1.0 uM

cGMP-dependent protein kinase 1 (Homo sapiens), sequence (Q13976 whole entry): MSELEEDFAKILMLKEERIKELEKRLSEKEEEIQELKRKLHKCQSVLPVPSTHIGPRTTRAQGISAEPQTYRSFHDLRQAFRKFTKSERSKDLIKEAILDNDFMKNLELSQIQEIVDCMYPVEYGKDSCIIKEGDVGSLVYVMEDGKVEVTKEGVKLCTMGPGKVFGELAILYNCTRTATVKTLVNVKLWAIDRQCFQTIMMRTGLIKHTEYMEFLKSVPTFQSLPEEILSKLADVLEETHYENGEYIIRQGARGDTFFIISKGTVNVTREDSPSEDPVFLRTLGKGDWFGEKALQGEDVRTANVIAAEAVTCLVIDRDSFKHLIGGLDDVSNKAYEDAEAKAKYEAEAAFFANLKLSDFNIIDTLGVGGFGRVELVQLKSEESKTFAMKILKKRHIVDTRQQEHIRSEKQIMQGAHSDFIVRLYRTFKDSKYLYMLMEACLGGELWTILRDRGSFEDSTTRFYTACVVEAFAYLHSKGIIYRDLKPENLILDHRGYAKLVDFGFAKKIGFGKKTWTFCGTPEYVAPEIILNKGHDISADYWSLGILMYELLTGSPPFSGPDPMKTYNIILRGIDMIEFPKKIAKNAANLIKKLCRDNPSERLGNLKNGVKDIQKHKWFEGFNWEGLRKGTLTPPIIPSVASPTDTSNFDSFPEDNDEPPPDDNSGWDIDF
Tyrosine-protein kinase Lck (Homo sapiens), sequence (P06239 2-509 limits assumed): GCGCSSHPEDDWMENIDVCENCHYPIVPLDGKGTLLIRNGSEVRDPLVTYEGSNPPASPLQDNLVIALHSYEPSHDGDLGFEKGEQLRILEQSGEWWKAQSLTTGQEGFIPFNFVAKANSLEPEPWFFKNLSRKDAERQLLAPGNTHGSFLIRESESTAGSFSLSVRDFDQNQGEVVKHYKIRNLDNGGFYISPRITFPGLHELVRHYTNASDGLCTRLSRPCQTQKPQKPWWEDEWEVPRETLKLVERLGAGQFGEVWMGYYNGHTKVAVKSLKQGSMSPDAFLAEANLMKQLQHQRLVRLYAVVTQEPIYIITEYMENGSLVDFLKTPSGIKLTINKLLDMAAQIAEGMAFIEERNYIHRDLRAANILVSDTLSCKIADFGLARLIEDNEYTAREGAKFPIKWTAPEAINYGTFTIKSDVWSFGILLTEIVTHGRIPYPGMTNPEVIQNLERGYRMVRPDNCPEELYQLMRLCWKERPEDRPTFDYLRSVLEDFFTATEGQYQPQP
Mitogen-activated protein kinase 8 (Homo sapiens), sequence (P45983 whole entry): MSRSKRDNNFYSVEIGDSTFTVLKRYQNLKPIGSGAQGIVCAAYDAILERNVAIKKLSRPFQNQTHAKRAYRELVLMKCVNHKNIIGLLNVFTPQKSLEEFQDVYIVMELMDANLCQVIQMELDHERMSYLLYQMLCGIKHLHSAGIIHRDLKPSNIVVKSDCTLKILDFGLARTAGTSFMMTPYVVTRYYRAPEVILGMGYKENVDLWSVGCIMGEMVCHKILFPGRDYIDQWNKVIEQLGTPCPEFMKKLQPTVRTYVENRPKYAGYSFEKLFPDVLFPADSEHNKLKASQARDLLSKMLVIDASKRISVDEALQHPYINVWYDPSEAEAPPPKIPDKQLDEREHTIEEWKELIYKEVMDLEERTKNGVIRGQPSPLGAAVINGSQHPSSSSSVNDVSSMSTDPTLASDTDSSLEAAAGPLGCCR
Tyrosine-protein kinase Fes/Fps (Homo sapiens), sequence (P07332 whole entry): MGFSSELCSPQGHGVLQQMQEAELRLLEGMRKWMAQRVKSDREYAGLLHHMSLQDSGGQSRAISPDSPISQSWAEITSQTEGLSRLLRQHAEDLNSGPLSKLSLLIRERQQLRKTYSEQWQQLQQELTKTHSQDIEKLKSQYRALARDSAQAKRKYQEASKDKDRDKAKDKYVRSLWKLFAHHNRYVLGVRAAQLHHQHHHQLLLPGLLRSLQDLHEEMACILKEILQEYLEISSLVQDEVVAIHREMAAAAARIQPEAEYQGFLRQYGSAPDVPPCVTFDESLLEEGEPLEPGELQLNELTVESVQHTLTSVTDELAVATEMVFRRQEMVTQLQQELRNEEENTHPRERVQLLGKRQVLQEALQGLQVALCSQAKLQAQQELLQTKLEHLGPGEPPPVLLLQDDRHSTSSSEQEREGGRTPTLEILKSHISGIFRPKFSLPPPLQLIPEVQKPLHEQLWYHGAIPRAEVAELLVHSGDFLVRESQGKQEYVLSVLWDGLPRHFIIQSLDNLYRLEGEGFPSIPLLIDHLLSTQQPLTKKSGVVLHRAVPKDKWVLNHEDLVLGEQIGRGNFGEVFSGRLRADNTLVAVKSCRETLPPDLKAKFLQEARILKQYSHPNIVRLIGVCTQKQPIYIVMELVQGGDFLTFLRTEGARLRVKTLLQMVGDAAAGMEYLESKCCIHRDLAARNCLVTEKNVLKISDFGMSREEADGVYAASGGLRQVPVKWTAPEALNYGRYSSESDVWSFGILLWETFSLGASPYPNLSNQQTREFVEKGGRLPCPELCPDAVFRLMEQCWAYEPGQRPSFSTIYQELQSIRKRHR
Serine/threonine-protein kinase Sgk3 (Homo sapiens), sequence (Q96BR1 whole entry): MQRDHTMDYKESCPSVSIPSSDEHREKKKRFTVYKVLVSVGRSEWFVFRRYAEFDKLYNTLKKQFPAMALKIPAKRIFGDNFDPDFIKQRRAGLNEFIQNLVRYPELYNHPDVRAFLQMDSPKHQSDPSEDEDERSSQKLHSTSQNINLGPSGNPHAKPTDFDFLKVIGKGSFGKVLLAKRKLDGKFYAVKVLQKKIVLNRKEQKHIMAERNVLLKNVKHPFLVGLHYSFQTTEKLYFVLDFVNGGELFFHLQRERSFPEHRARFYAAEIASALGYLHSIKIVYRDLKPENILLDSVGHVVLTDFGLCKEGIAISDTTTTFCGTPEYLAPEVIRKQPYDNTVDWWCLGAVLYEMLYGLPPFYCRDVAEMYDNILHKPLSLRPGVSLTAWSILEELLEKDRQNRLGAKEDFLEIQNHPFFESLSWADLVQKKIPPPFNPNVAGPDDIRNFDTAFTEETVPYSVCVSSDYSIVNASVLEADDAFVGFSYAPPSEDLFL
Serine/threonine-protein kinase 25 (Homo sapiens), sequence (O00506 whole entry, looked up): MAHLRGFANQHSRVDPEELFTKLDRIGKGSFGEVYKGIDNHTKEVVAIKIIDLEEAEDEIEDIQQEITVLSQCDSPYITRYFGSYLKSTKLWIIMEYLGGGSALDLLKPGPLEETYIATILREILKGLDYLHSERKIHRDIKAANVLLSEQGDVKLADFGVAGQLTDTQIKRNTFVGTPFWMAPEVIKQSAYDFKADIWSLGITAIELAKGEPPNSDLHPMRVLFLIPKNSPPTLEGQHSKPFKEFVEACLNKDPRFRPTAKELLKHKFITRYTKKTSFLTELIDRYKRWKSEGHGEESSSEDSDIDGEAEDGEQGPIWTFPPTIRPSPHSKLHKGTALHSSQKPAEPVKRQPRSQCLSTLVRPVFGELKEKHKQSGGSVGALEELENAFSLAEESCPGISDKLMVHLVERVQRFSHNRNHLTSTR
Casein kinase II subunit alpha (Homo sapiens), sequence (P68400 whole entry, looked up): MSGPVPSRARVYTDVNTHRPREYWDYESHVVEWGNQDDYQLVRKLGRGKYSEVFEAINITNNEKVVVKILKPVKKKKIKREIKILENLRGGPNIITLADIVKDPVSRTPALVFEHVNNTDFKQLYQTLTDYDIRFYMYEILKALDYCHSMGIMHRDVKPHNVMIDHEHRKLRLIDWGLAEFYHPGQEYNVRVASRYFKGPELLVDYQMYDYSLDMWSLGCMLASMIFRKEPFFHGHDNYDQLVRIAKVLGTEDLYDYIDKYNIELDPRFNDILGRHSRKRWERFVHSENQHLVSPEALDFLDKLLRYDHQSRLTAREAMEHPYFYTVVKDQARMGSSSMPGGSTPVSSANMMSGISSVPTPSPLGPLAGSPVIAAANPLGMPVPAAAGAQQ
Protein kinase C beta type (Homo sapiens), sequence (P05771 2-671 limits assumed): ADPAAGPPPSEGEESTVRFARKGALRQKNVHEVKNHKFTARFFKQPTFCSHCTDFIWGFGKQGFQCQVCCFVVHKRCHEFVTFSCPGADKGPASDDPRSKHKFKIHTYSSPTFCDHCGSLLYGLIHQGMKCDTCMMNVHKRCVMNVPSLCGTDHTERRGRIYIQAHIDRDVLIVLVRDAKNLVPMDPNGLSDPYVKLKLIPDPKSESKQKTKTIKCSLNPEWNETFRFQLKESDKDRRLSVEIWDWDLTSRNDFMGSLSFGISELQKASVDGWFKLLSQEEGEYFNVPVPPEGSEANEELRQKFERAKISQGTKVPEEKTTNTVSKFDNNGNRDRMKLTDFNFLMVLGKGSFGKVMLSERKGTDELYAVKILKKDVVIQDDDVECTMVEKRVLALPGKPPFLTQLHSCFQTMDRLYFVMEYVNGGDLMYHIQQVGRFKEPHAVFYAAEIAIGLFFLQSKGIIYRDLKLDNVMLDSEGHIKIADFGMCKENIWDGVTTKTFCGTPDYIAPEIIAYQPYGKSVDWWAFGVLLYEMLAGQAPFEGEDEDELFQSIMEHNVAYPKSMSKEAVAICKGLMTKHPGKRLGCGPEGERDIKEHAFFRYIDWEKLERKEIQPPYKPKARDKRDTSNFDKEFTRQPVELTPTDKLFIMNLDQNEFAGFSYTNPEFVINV
Mitogen-activated protein kinase 14 (Homo sapiens), sequence (Q16539 whole entry): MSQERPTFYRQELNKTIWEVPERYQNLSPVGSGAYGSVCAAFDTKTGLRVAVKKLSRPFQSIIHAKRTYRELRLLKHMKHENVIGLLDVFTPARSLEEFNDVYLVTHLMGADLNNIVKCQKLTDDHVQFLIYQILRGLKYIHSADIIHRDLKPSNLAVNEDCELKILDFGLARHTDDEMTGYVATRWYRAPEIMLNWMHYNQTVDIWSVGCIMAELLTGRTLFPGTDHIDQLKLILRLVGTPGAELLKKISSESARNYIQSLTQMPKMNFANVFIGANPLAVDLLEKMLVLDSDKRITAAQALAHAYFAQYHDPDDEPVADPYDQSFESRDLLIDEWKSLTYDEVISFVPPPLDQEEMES

Compound Cc1cc2c(-c3ccc(NC(=O)[C@H](N)CC(C)(C)C)cc3C)ccnc2[nH]1 has an activity [1] of 119%, an activity [2] of 94% and an activity [3] of 94%. For the same compound, the activity [4] was 90%, the activity [5] was 88% and the activity [6] was 98%. For the same compound, the activity [7] was 110%, the activity [8] was 105% and the activity [9] was 85%. The activity [10] was 91%, the activity [11] was 107% and the activity [12] was 90%. It also gave an activity [13] of 112%, an activity [14] of 103% and an activity [15] of 106%. The Kd [16] was 9.5 nM (active), the activity [17] was 87% and the activity [18] was 95%. It also gave an activity [19] of 85%, an activity [20] of 110% and an activity [21] of 88%. For the same compound, the activity [22] was 98%, the activity [23] was 102% and the activity [24] was 92%. It also gave an activity [25] of 105%, an activity [26] of 98% and an activity [27] of 100%. It also gave an activity [28] of 111%, an activity [29] of 85% and an activity [30] of 92%. It also gave an activity [31] of 97%, an activity [32] of 102% and an activity [33] of 87%. It also gave an activity [34] of 90%, an activity [35] of 116% and an activity [36] of 96%. It also gave an activity [37] of 92%, an activity [38] of 79% and an activity [39] of 95%.
